Measurements taken from patent US8513270B2, “Substituted heterocycles as Janus kinase inhibitors” (Incyte Corporation, priority 2006, dated 2013).
Counter-ions that a name gives are not always drawn.

Columns and labels:
[1] = target: T1, human JAK1 (a.a. 837-1142) (Homo sapiens, UniProt P23458); test: In vitro JAK kinase assay (HTRF), JAK1; assay type: biochemical; conditions: JAK1, 90 μM ATP; read-out: EXAMPLE A JAK2-JAK1 HTRF-2 IC50
T1 construct: human JAK1 (a.a. 837-1142); His tag (N); made in house; host or cells: insect cells (baculovirus)
Protocol: (§1) Compounds herein were tested for inhibitory activity of JAK targets according to the following in vitro assay described in Park et al., Analytical Biochemistry 1999, 269, 94-104. The catalytic domains of human JAK1 (a.a. 837-1142), JAK2 (a.a. 828-1132) and JAK3 (a.a. 781-1124) with an N-terminal His tag were expressed using baculovirus in insect cells and purified. The catalytic activity of JAK1, JAK2 or JAK3 was assayed by measuring the phosphorylation of a biotinylated peptide. The phosphorylated peptide was detected by homogenous time resolved fluorescence (HTRF). IC50s of compounds were measured for each kinase in the reactions that contain the enzyme, ATP and 500 nM peptide in 50 mM Tris (pH 7.8) buffer with 100 mM NaCl, 5 mM DTT, and 0.1 mg/mL (0.01%) BSA. The ATP concentration in the reactions was 90 μM for JAK1, 30 μM for JAK2 and 3 μM for JAK3. Reactions were carried out at room temperature for 1 hr and then stopped with 20 μL 45 mM EDTA, 300 nM SA-APC, 6 nM Eu—Py20 in assay buffer (Perkin Elmer, Boston, Mass.). Binding to the Europium labeled antibody took place for 40 minutes and HTRF signal was measured on a Fusion plate reader (Perkin Elmer, Boston, Mass.).

[2] = target: T2, human JAK3 (a.a. 781-1124) (Homo sapiens, UniProt P52333); test: In vitro JAK kinase assay (HTRF), JAK3; assay type: biochemical; conditions: JAK3, 3 μM ATP; read-out: EXAMPLE A JAK2-JAK3 HTRF-2 IC50
T2 construct: JAK3 (a.a. 781-1124); His tag (N); made in house; host or cells: insect cells (baculovirus)
Protocol: as §1

[3] = target: T3, human JAK2 (a.a. 828-1132) (Homo sapiens, UniProt O60674); test: In vitro JAK kinase assay (HTRF), JAK2; assay type: biochemical; conditions: JAK2, 30 μM ATP; read-out: EXAMPLE A HTS-JAK2 HTRF-2 IC50
T3 construct: JAK2 (a.a. 828-1132); His tag (N); made in house; host or cells: insect cells (baculovirus)
Protocol: as §1

TF1-BCRABL1 cells = TF1-BCRABL1 cells (Homo sapiens, UniProt P00519); test: ABL1 cell based assay: viability of ABL1-dependent cell line (CellTiter-Glo); conditions: 72 hours, cell viability; read-out: EXAMPLE F JAK2-TF1-BCRABL1 IC50
Protocol: One or more compounds herein were tested for inhibitory activity of ABL1 targets according to at least one of the following cellular assays.
Cancer cell lines dependent on ABL1 kinase activity for proliferation and/or survival were plated at 3000 cells per well (96 well plate format) in RPMI 1640, and 10% FBS. Compounds were added to the cells in DMSO/media (final concentration 0.2% DMSO) and incubated for 72 hours at 37° C., 5% CO2. The effect of compound on cell viability was assessed using the CellTiter-Glo Luminescent Cell Viability Assay (Promega) followed by TopCount (Perkin Elmer, Boston, Mass.) quantitation. ABL1-dependent cell lines can include those naturally dependent on ABL1 activity or those engineered to be dependent on ABL1 activity (e.g. BaF/3 cells). The latter can be generated using wild-type ABL1 or mutant ABL1 (such as T315I ABL1) so that the activity of compounds can be assessed against different variants of the ABL1 kinase. Potential off-target effects of compounds were measured in parallel using a non-ABL1 driven cell line with the same assay readout. […] All experiments were performed in duplicate or greater.

T3 sequence (O60674 828-1132): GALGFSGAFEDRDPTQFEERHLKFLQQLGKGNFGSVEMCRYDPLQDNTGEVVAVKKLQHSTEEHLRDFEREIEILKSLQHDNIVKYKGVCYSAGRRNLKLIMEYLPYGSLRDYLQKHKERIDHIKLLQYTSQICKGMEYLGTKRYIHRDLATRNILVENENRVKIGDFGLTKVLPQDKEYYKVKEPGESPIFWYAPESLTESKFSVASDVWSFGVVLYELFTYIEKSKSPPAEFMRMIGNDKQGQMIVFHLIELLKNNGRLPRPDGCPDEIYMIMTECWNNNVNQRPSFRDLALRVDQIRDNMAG
Chain of TF1-BCRABL1 cells (P00519 whole entry, change not shown): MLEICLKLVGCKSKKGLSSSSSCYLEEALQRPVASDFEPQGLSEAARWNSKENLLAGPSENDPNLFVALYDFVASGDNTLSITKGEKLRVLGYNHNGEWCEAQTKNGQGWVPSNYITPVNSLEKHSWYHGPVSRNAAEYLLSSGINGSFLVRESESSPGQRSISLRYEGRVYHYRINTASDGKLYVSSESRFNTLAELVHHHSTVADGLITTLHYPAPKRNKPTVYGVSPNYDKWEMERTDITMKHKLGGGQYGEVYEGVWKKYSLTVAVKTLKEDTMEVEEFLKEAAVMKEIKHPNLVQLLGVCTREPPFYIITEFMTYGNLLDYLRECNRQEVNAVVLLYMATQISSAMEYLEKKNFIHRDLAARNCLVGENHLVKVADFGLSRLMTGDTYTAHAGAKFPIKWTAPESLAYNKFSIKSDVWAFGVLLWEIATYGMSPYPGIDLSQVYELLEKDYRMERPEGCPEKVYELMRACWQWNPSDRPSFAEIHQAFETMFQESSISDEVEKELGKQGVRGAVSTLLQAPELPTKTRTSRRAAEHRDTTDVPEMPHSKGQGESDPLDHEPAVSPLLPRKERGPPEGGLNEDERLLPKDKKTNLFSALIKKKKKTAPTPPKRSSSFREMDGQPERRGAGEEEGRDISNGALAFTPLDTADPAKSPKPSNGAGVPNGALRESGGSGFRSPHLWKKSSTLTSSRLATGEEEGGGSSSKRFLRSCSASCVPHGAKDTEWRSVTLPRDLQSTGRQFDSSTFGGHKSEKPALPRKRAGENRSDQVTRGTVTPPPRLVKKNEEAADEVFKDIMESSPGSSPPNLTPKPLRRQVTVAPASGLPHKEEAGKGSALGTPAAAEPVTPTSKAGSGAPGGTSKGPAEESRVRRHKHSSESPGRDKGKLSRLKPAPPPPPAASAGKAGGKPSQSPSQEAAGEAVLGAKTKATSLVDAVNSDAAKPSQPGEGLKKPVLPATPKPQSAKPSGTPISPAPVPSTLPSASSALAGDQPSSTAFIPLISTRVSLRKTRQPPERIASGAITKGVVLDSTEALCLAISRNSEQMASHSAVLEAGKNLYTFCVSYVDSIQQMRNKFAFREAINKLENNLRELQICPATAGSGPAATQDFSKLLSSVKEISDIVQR
T1 sequence (P23458 849-1154): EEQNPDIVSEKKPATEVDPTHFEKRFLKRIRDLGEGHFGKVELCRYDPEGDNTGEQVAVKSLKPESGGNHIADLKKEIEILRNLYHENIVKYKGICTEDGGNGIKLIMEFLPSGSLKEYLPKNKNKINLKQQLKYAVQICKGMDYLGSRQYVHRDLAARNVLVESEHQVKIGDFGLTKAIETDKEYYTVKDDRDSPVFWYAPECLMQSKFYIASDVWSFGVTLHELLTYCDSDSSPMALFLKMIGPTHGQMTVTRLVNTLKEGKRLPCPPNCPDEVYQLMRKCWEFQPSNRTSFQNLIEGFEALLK
T2 sequence (P52333 781-1124): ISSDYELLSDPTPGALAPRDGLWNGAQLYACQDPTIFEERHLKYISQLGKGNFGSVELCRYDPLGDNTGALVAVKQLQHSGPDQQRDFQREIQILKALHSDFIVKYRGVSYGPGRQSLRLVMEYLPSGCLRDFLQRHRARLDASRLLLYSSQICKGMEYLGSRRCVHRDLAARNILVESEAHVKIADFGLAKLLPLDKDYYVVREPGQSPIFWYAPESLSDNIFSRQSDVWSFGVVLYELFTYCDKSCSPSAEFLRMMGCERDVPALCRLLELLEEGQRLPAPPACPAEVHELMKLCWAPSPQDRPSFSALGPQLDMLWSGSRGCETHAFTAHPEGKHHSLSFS

Cc1ccc(NC(=O)c2cc(C(F)(F)F)ccc2F)cc1-c1ccc2c(c1)[nH]c1ncncc12 [Example 5, 2-fluoro-N-[4-methyl-3-(9H-pyrimido[4,5-b]indol-7-yl)-phenyl]-5-(trifluoromethyl)-benzamide]
≤ 500 nM: IC50 [1] | IC50 [2] | IC50 [3] | GI50 (TF1-BCRABL1 cells)

Cc1ccc(NC(=O)c2cc(C(F)(F)F)cc(C(F)(F)F)c2)cc1-c1ccc2c(c1)[nH]c1ncncc12 [Example 9, N-[4-methyl-3-(9H-pyrimido-[4,5-b]indol-7-yl)phenyl]-3,5-bis(trifluoromethyl)benzamide]
≤ 500 nM: IC50 [1] | IC50 [2] | IC50 [3] | GI50 (TF1-BCRABL1 cells)

Cc1ccc(NC(=O)c2cc(-n3cnc(C=O)c3)cc(C(F)(F)F)c2)cc1-c1ccc2c(c1)[nH]c1ncncc12 [Example 20, 3-(4-Formyl-1H-imidazol-1-yl)-N-[4-methyl-3-(9H-pyrimido[4,5-b]indol-7-yl)phenyl]-5-(trifluoromethyl)benzamide trifluoroacetate]
≤ 500 nM: IC50 [1] | IC50 [2] | IC50 [3] | GI50 (TF1-BCRABL1 cells)

Cc1ncc(NC(=O)c2cc(-n3cnc(C=O)c3)cc(C(F)(F)F)c2)cc1-c1ccc2c(c1)[nH]c1ncncc12 [Example 74, 3-(4-formyl-1H-imidazol-1-yl)-N-[6-methyl-5-(9H-pyrimido[4,5-b]indol-7-yl)pyridin-3-yl]-5-(trifluoromethyl)benzamide bis(trifluoroacetate)]
≤ 500 nM: IC50 [1] | IC50 [2] | IC50 [3] | GI50 (TF1-BCRABL1 cells)

Cc1ccc(NC(=O)c2cc(NCCCn3ccnc3)cc(C(F)(F)F)c2)cc1-c1ccc2c(c1)[nH]c1ncncc12 [Example 35, 3-{[3-(1H-imidazol-1-yl)-propyl]amino}-N-[4-methyl-3-(9H-pyrimido[4,5-b]indol-7-yl)phenyl]-5-(trifluoromethyl)-benzamide]
≤ 500 nM: IC50 [1] | IC50 [2] | IC50 [3] | GI50 (TF1-BCRABL1 cells)

Cc1ccc(NC(=O)c2cccc(C(F)(F)F)c2)cc1-c1ccc2c(c1)[nH]c1nc(N)ncc12 [Example 67, N-[3-(2-Amino-9H-pyrimido[4,5-b]indol-7-yl)-4-methylphenyl]-3-(trifluoro-methyl)benzamide trifluoroacetate]
≤ 500 nM: IC50 [1] | IC50 [2] | IC50 [3] | GI50 (TF1-BCRABL1 cells)

Cc1ccc(NC(=O)c2cc(N3CCN(CCO)CC3)cc(C(F)(F)F)c2)cc1-c1ccc2c(c1)[nH]c1ncncc12 [Example 32, 3-[4-(2-hydroxyethyl)piperazin-1-yl]-N-[4-methyl-3-(9H-pyrimido[4,5-b]indol-7-yl)-phenyl]-5-(trifluoromethyl)-benzamide]
≤ 500 nM: IC50 [1] | IC50 [2] | IC50 [3] | GI50 (TF1-BCRABL1 cells)

Cc1ncc(NC(=O)c2cc(NCCCN(C)C)cc(C(F)(F)F)c2)cc1-c1ccc2c(c1)[nH]c1ncncc12 [Example 77, 3-[3-(dimethylamino)propyl]amino-N-[6-methyl-5-(9H-pyrimido[4,5-b]indol-7-yl)pyridin-3-yl]-5-(trifluoromethyl)benzamide tris(trifluoroacetate)]
≤ 500 nM: IC50 [1] | IC50 [2] | IC50 [3] | GI50 (TF1-BCRABL1 cells)

Cc1ncc(NC(=O)c2cc(-n3cncn3)cc(C(F)(F)F)c2)cc1-c1ccc2c(c1)[nH]c1ncncc12 [Example 73, N-[6-methyl-5-(9H-pyrimido[4,5-b]indol-7-yl)pyridin-3-yl]-3-(1H-1,2,4-triazol-1-yl)-5-(trifluoromethyl)benzamide bis(trifluoroacetate)]
≤ 500 nM: IC50 [1] | IC50 [2] | IC50 [3] | GI50 (TF1-BCRABL1 cells)
